Assay results taken from US20220184008A1, “MODULATORS OF INTRACELLULAR CHLORIDE CONCENTRATION” (FONDAZIONE ISTITUTO ITALIANO DI TECNOLOGIA, priority 2019, published 2022).

Columns and labels:
NKCC1 [1] = biological target: T1, NKCC1 (Homo sapiens, UniProt P55011); experiment: Chloride kinetic assay (Cl-sensitive YFP) in NKCC1-transfected HEK293 cells; format: cell-based; settings: 10 μM, NKCC1-transfected HEK293; for inhibition at 10 µM: read-out: NKCC1 Inhibition % 10 μM HEK Chloride YFP assay
T1 construct: expressed in transfected cells; host or cells: HEK293
T1 sequence (P55011 1-1212): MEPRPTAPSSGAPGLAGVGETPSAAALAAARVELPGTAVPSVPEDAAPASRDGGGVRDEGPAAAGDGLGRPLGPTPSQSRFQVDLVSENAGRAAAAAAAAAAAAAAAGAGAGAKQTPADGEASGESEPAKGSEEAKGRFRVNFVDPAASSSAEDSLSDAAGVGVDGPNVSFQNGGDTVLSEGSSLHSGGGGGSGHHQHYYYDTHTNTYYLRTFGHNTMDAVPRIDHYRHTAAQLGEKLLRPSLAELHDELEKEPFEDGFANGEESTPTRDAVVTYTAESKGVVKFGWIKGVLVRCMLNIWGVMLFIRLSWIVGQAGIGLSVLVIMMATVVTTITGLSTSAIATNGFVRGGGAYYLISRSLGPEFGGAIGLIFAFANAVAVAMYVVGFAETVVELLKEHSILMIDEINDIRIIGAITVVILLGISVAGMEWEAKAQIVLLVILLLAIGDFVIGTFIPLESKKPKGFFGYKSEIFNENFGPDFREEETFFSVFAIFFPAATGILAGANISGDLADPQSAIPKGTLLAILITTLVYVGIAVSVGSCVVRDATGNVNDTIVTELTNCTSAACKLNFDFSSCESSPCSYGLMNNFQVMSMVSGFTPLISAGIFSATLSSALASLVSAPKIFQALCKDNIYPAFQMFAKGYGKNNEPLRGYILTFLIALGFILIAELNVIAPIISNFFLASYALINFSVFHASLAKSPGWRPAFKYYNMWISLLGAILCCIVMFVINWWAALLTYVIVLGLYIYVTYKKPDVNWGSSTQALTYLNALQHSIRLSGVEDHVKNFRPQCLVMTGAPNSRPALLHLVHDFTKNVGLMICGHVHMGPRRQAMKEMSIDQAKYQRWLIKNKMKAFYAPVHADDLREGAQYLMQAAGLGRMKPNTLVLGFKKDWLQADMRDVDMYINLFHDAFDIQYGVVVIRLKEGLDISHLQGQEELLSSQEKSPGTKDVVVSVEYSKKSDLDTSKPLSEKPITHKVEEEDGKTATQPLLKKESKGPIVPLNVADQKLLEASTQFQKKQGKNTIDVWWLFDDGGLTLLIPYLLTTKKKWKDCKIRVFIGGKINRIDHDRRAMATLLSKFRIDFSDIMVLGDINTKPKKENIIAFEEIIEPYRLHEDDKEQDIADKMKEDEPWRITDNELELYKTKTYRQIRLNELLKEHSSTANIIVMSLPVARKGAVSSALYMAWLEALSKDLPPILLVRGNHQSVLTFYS
Protocol: FIG. 1: In vitro testing of the NKCC1 inhibitors in the chloride kinetic assay a) Example traces obtained in the chloride kinetic assay on HEK cells transfected with the YFP (mock) or with YFP and NKCC1. The arrow indicates the addition of NaCl (final concentration 74 mM) used to initiate the flux assay. b) Quantification of the effect of bumetanide (10 μM and 100 μM) or furosemide (10 μM and 100 μM) in the chloride kinetic assay on mock or NKCC1-transfected HEK293 cells. Data represents mean±sem from 5 independent experiments. c) Quantification of the effect of bumetanide and furosemide and 2 selected compounds (3.8, 3.17) in the chloride kinetic assay on NKCC1-transfected HEK293 cells. Data represents mean±sem from 5 independent experiments, and they are represented as % of the controls. *P<0.05, **P<0.01, ***P<0.001 Kruskal-Wallis Anova (Dunn's Post hoc Test); ###P<0.001 two-tailed unpaired Student t-test.
To screen in vitro the compounds efficiency in blocking NKCC1, a functional NKCC1 transporter assay was performed by measuring variation of Cl^− ion concentration in the cell through a Cl^− sensitive membrane-tagged yellow fluorescent protein (mbYFPQS, Addgene). mbYFPQS fluorescence is inversely dependent on the concentration of Cl^− inside the cell thus allowing an indirect estimation of the Cl^− transporter activity. In particular, HEK293 cells were transfected with NKCC1 or mock construct (control) together with the Cl^− sensitive YFP. After 2 DIV, the cells were treated with bumetanide and furosemide (as positive controls) or with each of the tested compounds of the invention in a Cl^− free medium. After 30 min, the inhibitory activity of the compounds was tested by monitoring fluorescence upon application of NaCl (FIG. 1a). Transported by NKCC1, Cl binds the YFP, leading to a fluorescence decrease. […] With the Cl kinetic assay, the NKCC1 inhibitory activity of the selected compounds was tested (FIG. 1c).

NKCC1 [2] = experiment: Calcium kinetic assay in primary cultures of immature hippocampal neurons; format: cell-based; settings: 10 μM, immature neurons 3 DIV
Protocol: FIG. 2: In vitro testing of the NKCC1 inhibitors in a calcium kinetic assay. a) Example traces of fluorescence levels upon application of GABA (100 μM) and KCl (90 mM) used to trigger calcium influx in primary neuronal cultures treated after 3 days in culture (3 DIV) with vehicle, bumetanide, furosemide and compounds 3.8, 3.13 and 3.17 in the calcium kinetic assay. b) Quantification of the average fluorescence increase upon GABA application normalized to the increase upon KCl application in neurons treated with bumetanide, furosemide and 3 exemplary compounds (3.8, 3.13, 3.17) (10 μM, 100 μM). Data represents mean±sem from 5 independent experiments, and they are presented as % of the control. *P<0.05, **P<0.01, ***P<0.001 Kruskal-Wallis Anova (Dunn's Post hoc Test).
Next, the compounds of the invention were tested for their ability to revert the depolarizing GABAergic signaling in immature neurons. This effect was indirectly measured as calcium influx into the cells with an in vitro calcium kinetic assay in primary cultures of hippocampal neurons. The calcium kinetic assay exploits the physiological, endogenous, high expression of NKCC1 in immature neurons, which causes depolarizing actions of GABA and can activate voltage-gated Ca^2+ channels. Thus, in immature neurons, a compound that blocks NKCC1 is predicted to inhibit Ca^2+ responses upon GABA application. Immature neurons were cultured for 3 days in vitro (3 DIV) and loaded for 15 min with a calcium-sensitive dye (Fluo4). Then, the neurons were treated with bumetanide and furosemide (as positive controls) or with each of the selected compounds for 15 min. As a functional readout, the fluorescence level was monitored in these cultures before and after application of GABA (100 μM, for 20 sec). To test for neuronal viability at the end of the experiment, KCl was applied (90 mM, for 40 sec), which strongly depolarizes neurons, causing high activation of voltage-gated Ca^2+ channels in live cells. To quantify how bumetanide, furosemide, and selected compounds influenced NKCC1 inhibition, the fluorescence values were normalized upon GABA application to the fluorescence levels upon KCl application in treated neurons.

NKCC1 Inhibition % 10 μM HEK Chloride YFP assay (NKCC1 [1]; Table 1)	NKCC1 Inhibition % 10 μM HEK Chloride YFP assay (NKCC1 [1]; Table 2)	inhibition at 10 µM (NKCC1 [1]; Table 1)	SMILES	NKCC1 Inhibition % 10 μM Neurons Calcium kinetic assay (NKCC1 [2]; Table 1)	NKCC1 Inhibition % 10 μM Neurons Calcium kinetic assay (NKCC1 [2]; Table 2)
Inactive	Inactive		CNS(=O)(=O)c1cc(C(=O)O)ccc1NCCCCCCCC(F)(F)F [Compound 3.10, 3-(methylsulfamoyl)-4-(8,8,8-trifluorooctylamino)benzoic acid]	14%	14%
		11%	CN(C)S(=O)(=O)c1cc(C(=O)O)ccc1NCCCC(F)(F)F [Compound 3.15, 3-(dimethylsulfamoyl)-4-(4,4,4 trifluorobutylamino) benzoic acid]	Inactive	Inactive
		17%	CN(C)S(=O)(=O)c1cc(C(=O)O)ccc1NCCCCCC(F)(F)F [Compound 3.16, 3-(dimethylsulfamoyl)-4-(6,6,6-trifluorohexylamino) benzoic acid]	Inactive	Inactive
		13%	COCCNc1ccc(C(=O)O)cc1S(=O)(=O)N(C)C [Compound 3.18, 3-(dimethylsulfamoyl)-4-(2-methoxyethylamino)benzoic acid]	Inactive	Inactive
		6%	COCCCCNc1ccc(C(=O)O)cc1S(=O)(=O)N(C)C [Compound 3.19, 3-(dimethylsulfamoyl)-4-(4-methoxybutylamino)benzoic acid]	Inactive	Inactive
Inactive	Inactive		COCCCCCCNc1ccc(C(=O)O)cc1S(=O)(=O)N(C)C [Compound 3.20, 3-(dimethylsulfamoyl)-4-(6-methoxyhexylamino)benzoic acid]	20%	20%
		18%	O=C(O)c1ccc(NCCCCCCCC(F)(F)F)c(S(=O)(=O)NC2CCCC2)c1 [Compound 3.21, 3-(cyclopentylsulfamoyl)-4-(8,8,8-trifluorooctylamino) benzoic acid]	51%	51%
		4%	O=C(O)c1ccc(NCCCCCCCC(F)(F)F)c(S(=O)(=O)NC2CCCCC2)c1 [Compound 3.22, 3-(cyclohexylsulfamoyl)-4-(8,8,8-trifluorooctylamino) benzoic acid]	54%	54%
		2%	O=C(O)c1ccc(NCCCCCCCC(F)(F)F)c(S(=O)(=O)N2CCCC2)c1 [Compound 5.5, 3-pyrrolidin-1-ylsulfonyl-4-(8,8,8-trifluorooctylamino) benzoic acid]	39%	39%
Inactive	Inactive		O=C(O)c1ccc(NCCCCCCCC(F)(F)F)c(S(=O)(=O)N2CCCCC2)c1 [Compound 5.6, 3-(1-piperidylsulfonyl)-4-(8,8,8-trifluorooctylamino) benzoic acid]	55%	55%
		20%	CN(C)S(=O)(=O)c1cc(C#N)ccc1NCCCCCCCC(F)(F)F [Compound 6.3, 5-cyano-N,N-dimethyl-2-(8,8,8-trifluorooctylamino) benzenesulfonamide]		
		3%	CN(C)S(=O)(=O)c1cc(C(=O)O)ccc1N1CCN(CCCCC(F)(F)F)CC1 [Compound 9.1, 3-(dimethylsulfamoyl)-4-[4-(5,5,5 trifluoropentyl)piperazin-1-yl] benzoic acid]		
			CCOc1cc(NCCCCCCCC(F)(F)F)c(S(=O)(=O)N(C)C)cc1C(=O)O [Compound 12.9]	12.2%	
			CN(C)S(=O)(=O)c1cc(C(=O)O)c(OC2CCCC2)cc1NCCCCCCCC(F)(F)F [Compound 12.10]	26.6%	
			COc1cc(NCCCCCCCC(F)(F)F)c(S(=O)(=O)N(C)C)cc1C(=O)O [Compound 13.1, 5-(N,N-dimethylsulfamoyl)-2-methoxy-4-((8,8,8-trifluorooctyl)amino)benzoic acid]	14.2%	
			O=C(O)c1ccc(NCCCCCCCC(F)(F)F)c(S(=O)(=O)N2CCOCC2)c1 [Compound 14.3, 3-morpholinosulfonyl-4-((8,8,8-trifluorooctyl)amino)benzoic acid]	7.1%	
			O=C(O)c1ccc(NCCCCCCCC(F)(F)F)c(S(=O)(=O)N2CCC(F)(F)CC2)c1 [Compound 14.4, 3-((4,4-difluoropiperidin-1-yl)sulfonyl)-4-((8,8,8-trifluorooctyl)amino)benzoic acid]	48.0%	

SMILES	NKCC1 Inhibition % 10 μM HEK Chloride YFP assay (NKCC1 [1]; Table 1)	NKCC1 Inhibition % 10 μM HEK Chloride YFP assay (NKCC1 [1]; Table 2)	inhibition at 10 µM (NKCC1 [1]; Table 1)	NKCC1 Inhibition % 10 μM Neurons Calcium kinetic assay (NKCC1 [2]; Table 1)	NKCC1 Inhibition % 10 μM Neurons Calcium kinetic assay (NKCC1 [2]; Table 2)
O=C(O)c1ccc(NCCCCCCCC(F)(F)F)c(S(=O)(=O)N2CCOCC2)c1 [Compound 5.7, 3-morpholinosulfonyl-4-(8,8,8-trifluorooctylamino) benzoic acid]			13%	24%	24%
